# According to publication PMC5546919 (The Journal of organic chemistry, 2010):
# Legend:
# Format in all cases: biochemical
# [1] = biological target: T1, human 20S proteasome, caspase-like (C-L) activity (Homo sapiens, UniProt P28072); test: Proteasome-Glo luminogenic assay, C-L substrate
# T1 sequence (P28072 35-239): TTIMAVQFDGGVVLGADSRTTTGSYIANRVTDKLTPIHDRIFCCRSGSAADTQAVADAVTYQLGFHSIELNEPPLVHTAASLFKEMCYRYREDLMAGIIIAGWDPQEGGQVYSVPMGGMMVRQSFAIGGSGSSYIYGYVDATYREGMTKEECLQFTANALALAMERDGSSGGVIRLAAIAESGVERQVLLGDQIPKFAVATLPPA
# [2] = biological target: T2, human 20S proteasome, chymotrypsin-like (CT-L) activity (Homo sapiens, UniProt P28074); test: Proteasome-Glo luminogenic assay, CT-L substrate
# T2 sequence (P28074 60-263): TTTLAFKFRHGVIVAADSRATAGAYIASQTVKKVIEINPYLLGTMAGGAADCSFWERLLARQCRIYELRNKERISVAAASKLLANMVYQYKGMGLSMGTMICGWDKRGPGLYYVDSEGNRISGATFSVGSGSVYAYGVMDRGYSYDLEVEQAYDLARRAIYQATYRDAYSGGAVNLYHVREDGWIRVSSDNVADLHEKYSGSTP
# [3] = biological target: T3, human 20S proteasome, trypsin-like (T-L) activity (Homo sapiens, UniProt Q99436); test: Proteasome-Glo luminogenic assay, T-L substrate
# T3 sequence (Q99436 44-277): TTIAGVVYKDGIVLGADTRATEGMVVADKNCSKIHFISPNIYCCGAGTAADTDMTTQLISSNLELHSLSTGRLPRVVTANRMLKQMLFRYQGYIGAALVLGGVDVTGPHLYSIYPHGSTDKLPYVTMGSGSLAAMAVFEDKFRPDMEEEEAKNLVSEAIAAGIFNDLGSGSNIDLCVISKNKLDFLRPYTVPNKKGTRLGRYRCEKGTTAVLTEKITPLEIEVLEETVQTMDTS
# [4] = biological target: T4, human 26S proteasome, chymotrypsin-like (CT-L) activity (Homo sapiens, UniProt P28074); test: Proteasome-Glo luminogenic assay, CT-L substrate
# T4 sequence (P28074 60-263): T2 sequence (P28074 60-263)
# [5] = biological target: T5, human 26S proteasome, caspase-like (C-L) activity (Homo sapiens, UniProt P28072); test: Proteasome-Glo luminogenic assay, C-L substrate
# T5 sequence (P28072 35-239): T1 sequence (P28072 35-239)
# [6] = biological target: T6, human 26S proteasome, trypsin-like (T-L) activity (Homo sapiens, UniProt Q99436); test: Proteasome-Glo luminogenic assay, T-L substrate
# T6 sequence (Q99436 44-277): T3 sequence (Q99436 44-277)
Structure (SMILES),IC50 [1] [nM],IC50 [2] [nM],IC50 [3] [nM],IC50 [4] [nM],IC50 [5] [nM],IC50 [6] [nM]
"CCCCCCC1C(=O)NC2(C(O)C3C=CCCC3)C(=O)OC12C (racemic) [(±)-2, rac-cinnabaramide A]",125 ± 12,2.8 ± 0.6,260 ± 29,2.2 ± 0.04,,
"C[C@@]12OC(=O)[C@]1([C@@H](O)[C@@H]1C=CCCC1)NC(=O)[C@@H]2CCCl [1a, (−)-salino A]",111 ± 22,,39 ± 7,,156 ± 18,37 ± 16
"C[C@@]12OC(=O)[C@]1([C@@H](O)[C@@H]1C=CCCC1)NC(=O)[C@@H]2CCCCl [compound 54, (−)-homosalino]",144 ± 12,,118 ± 28,,188 ± 3,125 ± 30
